Assays:
[1] = tested on: mouse colon cancer cells (C26); test: In vitro cytotoxicity, MTT, mouse colon cancer cells C26 (Test Example 3); format: cell-based; conditions: ordinary medium containing 0.1% glucose
Procedure: These C26 cells subcultured intraperitoneally in mice were washed with a MEM medium (centrifugation, 1,500 rpm) and then adjusted the number of cells to 10^5/ml. […] Firstly, the above cells were cultured at a normal oxygen partial pressure for 24 to 30 hours, and then the culture medium [Petri dish, 96 wells] was transferred to a microaerobic conditions, which was made by adding a commercially available oxygen absorber to an anaerobic culture chamber, i.e., a hypoxic agent (oxygen absorber), AnaeroPack—Micro aero generator manufactured by Mitsubishi Gas Chemical Company, Inc., Tokyo, was added into an anaerobic culture chamber to be a microaerobic (hypoxic) oxygen partial pressure (6 to 9%). The sealed chamber used in this test was a medium square jar (3.5 L) manufactured by Sugiyama-Gen Co., Ltd., Tokyo. In this state, the reagents to be examined were added to each medium at a predetermined concentration, and further cultured for 36 hours. After that, the number of living cells was measured by the above MTT method.

[2] = Solubility of lyophilized product in distilled water; format: physicochemical; conditions: attempted 10 mg/ml solution
[3] = pH of lyophilized product dissolved in distilled water; format: physicochemical
[4] = Surface charge (Zeta potential); format: physicochemical; conditions: deionized water, 20 mg/ml
Colon cancer C26 cells = test: In vitro cytotoxicity under normoxic and hypoxic partial pressures for 48 hours, C26 cells (Test Example 4); format: cell-based, mouse; conditions: especially under low oxygen partial pressures
Procedure: (§1) Colon cancer C26 and HeLa cells (1×10^4 cells/well) were seeded in Falcon 96-well culture plates and cultured overnight at 37° C. in Eagle MEM containing 10% FBS under normoxic partial pressure (5% CO2, 95% air) and hypoxic partial pressure (using a hypoxic chamber, pO2 6-8%). […] Finally, cell viability was analyzed by MTT assay.
(§2) C26 and HeLa cells were also cultured as described above (FIGS. 7A and 7B) and treated with glucosamine (G) and SMA-glucosamine (SG). Finally, cell viability was measured by MTT assay.

HeLa cells [5] = test: In vitro cytotoxicity under normoxic and hypoxic partial pressures for 48 hours, HeLa cells (Test Example 4); format: cell-based; conditions: especially under low oxygen partial pressures
Procedure: as §1, §2

[6] = Particle size by dynamic light scattering; format: physicochemical; conditions: 0.1 M tris-HCl buffer (pH 8.2), 15 mg/ml, 25° C.
Procedure: Then, each solution was measured at 25° C. by a light scattering apparatus, Model ELSZ⋅2000ZS manufactured by Otsuka Electronics (Photal Inc., Osaka).

HeLa cells [7] = conditions: aerobic conditions, 24 hours drug treatment
Procedure: The culture of cells was performed in an Eagle MEM medium supplied with 10% fetal calf serum at 37° C. in 95% air/5% CO2. […] After that, the medium was replaced with a fresh medium and the culture was performed for further 24 hours. Then, viable cells was measured by the MTT method.

[8] = tested on: Escherichia coli (E. coli)
Procedure: (§3) Firstly, in a Falcon plastic plate with 96 wells, 0.1 ml of Mueller-Hinton medium was added to each well, followed by 10 μl of suspension of each bacterium (10^4/well).

Staphylococcus aureus = tested on: Staphylococcus aureus
Procedure: as §3

[9] = 24 hours, 37° C., boric acid equivalent

Row | Compound | Cytostatic action, rank order [1] | Solubility in distilled water [2] | Intrinsic pH in solution of lyophilized product in distilled water [3] | Surface charge (Zeta potential) [4] | Cytotoxicity (cell viability, MTT) (Colon cancer C26 cells) | Cytotoxicity (cell viability, MTT) (HeLa cells [5]) | Average particle size (dynamic light scattering method) in diameter [6] | Growth of cancer cells (cell viability, MTT) (HeLa cells [7]) | Antibacterial activity compared with boric acid [8] | Concentration of boric acid at which antibacterial activity was shown [8, 9] | Antibacterial activity under more anaerobic conditions ([8]; more anaerobic conditions) | Antibacterial activity compared with boric acid (Staphylococcus aureus) | Concentration of boric acid at which antibacterial activity was shown (Staphylococcus aureus; [9]) | Antibacterial activity under more anaerobic conditions (Staphylococcus aureus; more anaerobic conditions)
1 | N[C@H]1C(O)O[C@H](CO)[C@@H](O)[C@@H]1O (stereo partly shown) [glucosamine, reference compound] | strengthened in the order of (A) free glucosamine, (B) SG and (C) SGB |  |  |  |  |  |  |  |  |  |  |  |  | 
2 | SMA-glucosamine conjugate [SG] | strengthened in the order of (A) free glucosamine, (B) SG and (C) SGB | poorly soluble | 8.5 | −27 mV | very potent cytotoxicity | very potent cytotoxicity | 90 ± 3 nm |  |  |  |  |  |  | 
3 | SMA-glucosamine-boric acid complex [SGB] | strengthened in the order of (A) free glucosamine, (B) SG and (C) SGB |  |  |  |  |  |  | significantly suppressed | stronger antibacterial activity than boric acid | lower than 10 mg/ml | further increased | stronger antibacterial activity than boric acid | lower than 10 mg/ml | further increased

Reference: patent US20220218832A1, “POLYMER DRUG” (BIODYNAMIC RESEARCH FOUNDATION, priority 2019, published 2022)
